{"source": "ChEMBL document CHEMBL3244235", "about": "“Relationships between opiate receptor binding and analgetic properties of prodine-type compounds” (1977)", "note": "The source made the active and inactive calls. No cut-off for these calls is given here."}
{"biological_target": "T1, Opioid receptor (Rattus norvegicus) (UniProt P33533+P34975+P33535)", "T1 sequence (P33533 whole entry, looked up)": "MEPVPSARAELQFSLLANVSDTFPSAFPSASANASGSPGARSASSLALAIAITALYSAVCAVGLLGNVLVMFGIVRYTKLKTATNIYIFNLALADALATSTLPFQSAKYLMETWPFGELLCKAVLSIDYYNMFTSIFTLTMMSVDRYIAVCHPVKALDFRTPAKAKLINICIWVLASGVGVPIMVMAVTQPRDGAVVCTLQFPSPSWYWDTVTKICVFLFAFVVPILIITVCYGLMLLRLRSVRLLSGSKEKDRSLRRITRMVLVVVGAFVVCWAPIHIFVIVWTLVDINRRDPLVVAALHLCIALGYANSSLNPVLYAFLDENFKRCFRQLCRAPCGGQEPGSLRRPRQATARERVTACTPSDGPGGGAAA", "T1 sequence (P33535 whole entry, looked up)": "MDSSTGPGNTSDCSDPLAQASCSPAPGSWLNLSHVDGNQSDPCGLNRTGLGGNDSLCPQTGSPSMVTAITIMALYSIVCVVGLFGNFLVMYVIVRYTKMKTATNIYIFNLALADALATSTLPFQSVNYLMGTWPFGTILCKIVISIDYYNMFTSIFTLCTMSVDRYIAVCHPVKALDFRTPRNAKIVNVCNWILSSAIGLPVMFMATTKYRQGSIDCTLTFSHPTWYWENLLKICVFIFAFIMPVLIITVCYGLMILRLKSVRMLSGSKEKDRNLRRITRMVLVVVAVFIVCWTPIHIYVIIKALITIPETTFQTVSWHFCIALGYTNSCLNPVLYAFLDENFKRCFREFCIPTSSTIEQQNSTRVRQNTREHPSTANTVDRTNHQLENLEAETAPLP", "T1 sequence (P34975 whole entry, looked up)": "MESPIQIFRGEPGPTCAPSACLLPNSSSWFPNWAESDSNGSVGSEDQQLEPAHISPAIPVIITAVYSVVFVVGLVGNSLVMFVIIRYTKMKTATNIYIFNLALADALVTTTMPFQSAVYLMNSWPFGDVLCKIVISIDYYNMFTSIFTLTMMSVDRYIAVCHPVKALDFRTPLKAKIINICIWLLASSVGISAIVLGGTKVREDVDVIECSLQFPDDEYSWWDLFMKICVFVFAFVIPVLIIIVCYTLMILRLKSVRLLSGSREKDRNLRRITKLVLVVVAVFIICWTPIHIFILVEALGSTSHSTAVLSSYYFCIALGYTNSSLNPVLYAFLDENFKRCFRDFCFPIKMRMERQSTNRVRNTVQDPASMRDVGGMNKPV", "assay": "Displacement of specific [3H]dihydromorphine from opiate receptor in rat brain homogenates at 10^-5 M after 10 mins by scintillation counting", "type": "tissue-based"}
{"smiles": "CCCCCC[C@H]1CN(C)CC[C@]1(OC(=O)CC)c1ccccc1.Cl", "note": "(relative stereo)", "inhibition": "Active"}
{"biological_target": "T1, Opioid receptor (Rattus norvegicus)", "assay": "Displacement of nonspecific [3H]dihydromorphine from opiate receptor in rat brain homogenates at 10^-5 M after 10 mins by scintillation counting", "type": "tissue-based"}
{"smiles": "CCCCCC[C@H]1CN(C)CC[C@]1(OC(=O)CC)c1ccccc1.Cl", "note": "(relative stereo)", "inhibition": "Active"}
{"test_system": "Mus musculus", "assay": "Analgesic activity in sc dosed mouse by hot plate method", "type": "functional", "units": {"ED50": "mg/kg"}}
{"smiles": "CN1CC[C@]23c4c5ccc(O)c4O[C@H]2[C@@H](O)C=C[C@H]3[C@H]1C5.Cl", "note": "[MORPHINE HYDROCHLORIDE]", "ED50": 1.2}
{"smiles": "C=CC[C@@H]1CN(C)CC[C@]1(OC(=O)CC)c1ccccc1.Cl", "note": "(relative stereo)", "ED50": 11.7}
{"smiles": "C=CCC1CN(C)CCC1(OC(=O)CC)c1ccccc1.Cl", "note": "(configuration not stated)", "ED50": 0.03}
{"smiles": "CCC(=O)O[C@]1(c2ccccc2)CCN(C)C[C@@H]1CC.Cl", "note": "(relative stereo)", "ED50": 0.4}
{"smiles": "CCC(=O)O[C@]1(c2ccccc2)CCN(C)C[C@H]1C.Cl", "note": "(relative stereo)", "ED50": 0.18}
{"smiles": "CCCCCC[C@H]1CN(C)CC[C@]1(OC(=O)CC)c1ccccc1.Cl", "note": "(relative stereo)", "ED50": 80}
{"smiles": "CCCCCC[C@@H]1CN(C)CC[C@]1(OC(=O)CC)c1ccccc1.Cl", "note": "(relative stereo)", "ED50": 54.4}
{"smiles": "CCC(=O)O[C@]1(c2ccccc2)CCN(C)C[C@H]1CC.Cl", "note": "(relative stereo)", "ED50": 3.5}
{"smiles": "C=CC[C@H]1CN(C)CC[C@]1(OC(=O)CC)c1ccccc1.Cl", "note": "(relative stereo)", "ED50": 0.09}
{"smiles": "CCC(=O)O[C@]1(c2ccccc2)CCN(C)C[C@@H]1C.Cl", "note": "(relative stereo)", "ED50": 0.92}
